Data taken from patent publication US20040152903A1, “6-chloro-3-pyridylmethylpropylamine derivatives, preparation process thereof and bactericides” (priority 2004, published 2004).

Legend:
Assay in all cases: Antifungal activity test (PDA plate, hypha extension inhibition)
Format in all cases: cell-based
Microdochium nivale = conditions: 3.2 ppm in PDA culture medium
Experimental: (§1) (Antifungal Activity Test against Various Pathogenic Fungi) For each of the compounds I-1 to 27 of the present invention and the comparative compounds (a) to (d), (m-1) and (m-3), 20 mg was weighed and dissolved in 2 ml of dimethylsulfoxide, and a double dilution row in 10 steps was prepared by further using dimethylsulfoxide. A 0.6 ml portion of these solutions was each added to 60 ml of a PDA culture medium (potato-dextrose-agar culture medium) at about 60° C., they were well mixed in a 100 ml Erlenmeyer flask, the solution was poured into a schale and was solidified, the plate culture media containing the compounds according to the present invention with final concentrations of 100, 50.0, 25.0, 12.5, 6.3, 3.2, 1.6, 0.8, 0.4 and 0.2 mg/l were prepared. On the other hand, the specimen bacteria cultured on the plate culture media beforehand was punched by a 4 mm diameter cork borer, and was inoculated on the plate culture media containing the aforementioned chemicals. After the inoculation, the bacteria were cultured at the optimum growth temperature of each bacterium for 1 to 7 days (for this optimum growth temperature, LIST OF CULTURES 1996 Microorganisms 10th edition published by Fermentation Research Institute (Foundation) can be referred to.), and the growth of the bacteria was measured by the diameter of a colony. […]

Leptosphaeria nodorum = conditions: 0.8 ppm in PDA culture medium
Experimental: (Antifungal Activity Test against Various Pathogenic Fungi) For each of the compounds I-1 to 27 of the present invention and the comparative compounds (a) to (d), (m-1) and (m-3), 20 mg was weighed and dissolved in 2 ml of dimethylsulfoxide, and a double dilution row in 10 steps was prepared by further using dimethylsulfoxide. A 0.6 ml portion of these solutions was each added to 60 ml of a PDA culture medium (potato-dextrose-agar culture medium) at about 60° C., they were well mixed in a 100 ml Erlenmeyer flask, the solution was poured into a schale and was solidified, the plate culture media containing the compounds according to the present invention with final concentrations of 100, 50.0, 25.0, 12.5, 6.3, 3.2, 1.6, 0.8, 0.4 and 0.2 mg/l were prepared. On the other hand, the specimen bacteria cultured on the plate culture media beforehand was punched by a 4 mm diameter cork borer, and was inoculated on the plate culture media containing the aforementioned chemicals. After the inoculation, the bacteria were cultured at the optimum growth temperature of each bacterium for 1 to 7 days (for this optimum growth temperature, LIST OF CULTURES 1996 Microorganisms 10th edition published by Fermentation Research Institute (Foundation) can be referred to.), and the growth of the bacteria was measured by the diameter of a colony. […] R=100(dc−dt)/dc (Equation 3) [wherein each symbol is shown as follows: R=Hypha extension inhibition rate (%), dc=Diameter of colony on no-treated plate, dt=Diameter of colony on chemical-treated plate.] The results obtained above was evaluated in 5 steps in accordance with the following examination scale. <Growth Inhibition> 5: Hypha extension inhibition rate of 90% or more 4: Hypha extension inhibition rate of from 70% to less than 90% 3: […] 2: […] In addition, the abbreviations in Table 10 are as follows: L.n: Leptosphaeria nodorum

[1] = tested on: Pseudocercosporella herpotrichoides; conditions: 25 ppm in PDA culture medium
Experimental: as §1

SMILES	Growth Inhibition M.n (3.2) (Microdochium nivale)	Growth Inhibition L.n (0.8) (Leptosphaeria nodorum)	Growth Inhibition P.h (25) [1]
CC(Cc1ccc(C(F)(F)F)c(F)c1F)CN(C)Cc1ccc(Cl)nc1 (stereo not drawn) [Compound I-10]	4 (Hypha extension inhibition rate of from 70% to less than 90%)	4 (Hypha extension inhibition rate of from 70% to less than 90%)	5 (Hypha extension inhibition rate of 90% or more)
CC(Cc1ccc2c(c1)OC(F)(F)O2)CN(C)Cc1ccc(Cl)nc1 (stereo not drawn) [Compound I-24]	4 (Hypha extension inhibition rate of from 70% to less than 90%)	5 (Hypha extension inhibition rate of 90% or more)	5 (Hypha extension inhibition rate of 90% or more)
